Values joined by “and” are separate entries in the source; they are usually repeats but may differ in a detail not shown here. Equal entries are not always repeated.
Tested on: ZR-75-1 cells
Test: NanoString human kinome mRNA quantification
Assay type: cell-based
From the text: Human mRNAs were hybridised to NanoString human kinome and control code sets, then subjected to quantification using NanoString software. […] To permit data compaction, and simple kinome‐wide comparisons, the fold changes are log2 transformed. […] Cell pellets were resuspended at a concentration of ~6,500 cells/μl in RLT buffer (Qiagen). […] For total copy numbers, triplicate normalised count values were averaged, and to calculate fold induction, means were divided by triplicate mean values from matched DMSO controls. P‐values were calculated using unpaired t‐test (GraphPad Prism software) by employing treated and control count data for each kinase mRNA.

Which “BRD4 Normalised counts” value (BRD4 mRNA, single replicates) does the source give for NC1(c2ccc(-c3nc4ccn5c(=O)[nH]nc5c4cc3-c3ccccc3)cc2)CCC1 [MK-2206] here?
The value was 2584.75 and 2591.35 and 2590.29.

What about the “BRDT Average normalised counts” value (BRDT mRNA, average of 3 replicates) of the same compound?
The value was 1.

And the “BRDT Normalised counts” value (BRDT mRNA, single replicates)?
The value was 1.

What about the “BRSK1 Average normalised counts” value (BRSK1 mRNA, average of 3 replicates) of the same compound?
Its value is 145.583.

And the “BRSK1 Normalised counts” value (BRSK1 mRNA, single replicates)?
Its value is 127.82 and 151.05 and 157.88.

What about the “BRSK2 Average normalised counts” value (BRSK2 mRNA, average of 3 replicates) of the same compound?
The value was 4.607.

What about the “BRSK2 Normalised counts” value (BRSK2 mRNA, single replicates) of the same compound?
Its value is 2.39 and 5.97 and 5.46.

What about the “BTK Average normalised counts” value (BTK mRNA, average of 3 replicates) of the same compound?
The value was 1.

And the “BTK Normalised counts” value (BTK mRNA, single replicates)?
The value was 1.

What about the “BUB1B Average normalised counts” value (BUB1B mRNA, average of 3 replicates) of the same compound?
The value was 1729.87.

What about the “BUB1B Normalised counts” value (BUB1B mRNA, single replicates) of the same compound?
Its value is 1717.6 and 1711.31 and 1760.7.

And the “BUB1 Average normalised counts” value (BUB1 mRNA, average of 3 replicates)?
Its value is 648.95.

What about the “BUB1 Normalised counts” value (BUB1 mRNA, single replicates) of the same compound?
Its value is 644.12 and 665.35 and 637.38.

What about the “C9orf96 Average normalised counts” value (C9orf96 mRNA, average of 3 replicates) of the same compound?
The value was 2.773.

And the “C9orf96 Normalised counts” value (C9orf96 mRNA, single replicates)?
The value was 1 and 4.24 and 3.08.

What about the “C21orf7 Average normalised counts” value (C21orf7 mRNA, average of 3 replicates) of the same compound?
Its value is 1.

And the “C21orf7 Normalised counts” value (C21orf7 mRNA, single replicates)?
The value was 1.

What about the “CAMK1D average normalised counts” value (CAMK1D mRNA) of the same compound?
The value was 339.763.

And the “CAMK1D normalised counts (replicates)” value (CAMK1D mRNA)?
Its value is 364.15 and 317.85 and 337.29.

And the “CAMK1G average normalised counts” value (CAMK1G mRNA)?
Its value is 1.

And the “CAMK1G normalised counts (replicates)” value (CAMK1G mRNA)?
Its value is 1.

And the “CAMK1 average normalised counts” value (CAMK1 mRNA)?
Its value is 4.053.

And the “CAMK1 normalised counts (replicates)” value (CAMK1 mRNA)?
Its value is 4.2 and 2.5 and 5.46.

What about the “CAMK2A average normalised counts” value (CAMK2A mRNA) of the same compound?
The value was 1.

What about the “CAMK2A normalised counts (replicates)” value (CAMK2A mRNA) of the same compound?
The value was 1.

And the “CAMK2B average normalised counts” value (CAMK2B mRNA)?
Its value is 228.397.

And the “CAMK2B normalised counts (replicates)” value (CAMK2B mRNA)?
The value was 211.86.

And the “CAMK2D average normalised counts” value (CAMK2D mRNA)?
Its value is 829.067.

And the “CAMK2D normalised counts (replicates)” value (CAMK2D mRNA)?
Its value is 815.91 and 824.33 and 846.96.

What about the “CAMK2G average normalised counts” value (CAMK2G mRNA) of the same compound?
The value was 2774.38.

What about the “CAMK2G normalised counts (replicates)” value (CAMK2G mRNA) of the same compound?
The value was 2695.65 and 2845.89 and 2781.61.

And the “CAMK4 average normalised counts” value (CAMK4 mRNA)?
The value was 3.433.

What about the “CAMK4 normalised counts (replicates)” value (CAMK4 mRNA) of the same compound?
The value was 4.2 and 5.1 and 1.

And the “CAMKK1 average normalised counts” value (CAMKK1 mRNA)?
The value was 313.75.

What about the “CAMKK1 normalised counts (replicates)” value (CAMKK1 mRNA) of the same compound?
Its value is 326.89 and 314.38 and 299.98.

And the “CAMKK2 average normalised counts” value (CAMKK2 mRNA)?
Its value is 584.02.

And the “CAMKK2 normalised counts (replicates)” value (CAMKK2 mRNA)?
The value was 568.67 and 607.14 and 576.25.

And the “CAMKV average normalised counts” value (CAMKV mRNA)?
Its value is 1.5.

What about the “CAMKV normalised counts (replicates)” value (CAMKV mRNA) of the same compound?
Its value is 1 (2×) and 2.5.

And the “CASK average normalised counts” value (CASK mRNA)?
The value was 727.217.

What about the “CASK normalised counts (replicates)” value (CASK mRNA) of the same compound?
Its value is 714.11 and 680.12 and 787.42.

And the “CCL2 average normalised counts” value (CCL2 mRNA)?
The value was 6.427.

And the “CCL2 normalised counts (replicates)” value (CCL2 mRNA)?
Its value is 9.66 and 3.37 and 6.25.

And the “CDC7 average normalised counts” value (CDC7 mRNA)?
The value was 336.743.

What about the “CDC7 normalised counts (replicates)” value (CDC7 mRNA) of the same compound?
The value was 335.98 and 336.96 and 337.29.

And the “CDC42BPA average normalised counts” value (CDC42BPA mRNA)?
The value was 675.63.

What about the “CDC42BPA normalised counts (replicates)” value (CDC42BPA mRNA) of the same compound?
Its value is 678.66 and 677.51 and 670.72.

What about the “CDC42BPB average normalised counts” value (CDC42BPB mRNA) of the same compound?
Its value is 1143.02.

What about the “CDC42BPB normalised counts (replicates)” value (CDC42BPB mRNA) of the same compound?
The value was 1097.69 and 1178.77 and 1152.6.

What about the “CDC42BPG average normalised counts” value (CDC42BPG mRNA) of the same compound?
Its value is 104.73.

And the “CDC42BPG normalised counts (replicates)” value (CDC42BPG mRNA)?
The value was 110.55 and 108.48 and 95.16.

What about the “CDK1 average normalised counts” value (CDK1 mRNA) of the same compound?
The value was 3517.89.

What about the “CDK1 normalised counts (replicates)” value (CDK1 mRNA) of the same compound?
The value was 3504.63 and 3450.53 and 3598.5.

And the “CDK2 average normalised counts” value (CDK2 mRNA)?
Its value is 369.187.

What about the “CDK2 normalised counts (replicates)” value (CDK2 mRNA) of the same compound?
The value was 366.88 and 370.84 and 369.84.

And the “CDK3 average normalised counts” value (CDK3 mRNA)?
Its value is 56.79.

What about the “CDK3 normalised counts (replicates)” value (CDK3 mRNA) of the same compound?
Its value is 49.65 and 58.1 and 62.62.

And the “CDK4 average normalised counts” value (CDK4 mRNA)?
The value was 2610.07.

What about the “CDK4 normalised counts (replicates)” value (CDK4 mRNA) of the same compound?
Its value is 2590.21 and 2633.05 and 2606.96.

What about the “CDK5 average normalised counts” value (CDK5 mRNA) of the same compound?
Its value is 1339.04.

What about the “CDK5 normalised counts (replicates)” value (CDK5 mRNA) of the same compound?
Its value is 1332.2 and 1264.78 and 1420.13.

What about the “CDK6 average normalised counts” value (CDK6 mRNA) of the same compound?
Its value is 35.6167.

What about the “CDK6 normalised counts (replicates)” value (CDK6 mRNA) of the same compound?
Its value is 34.2 and 34.64 and 38.01.

What about the “CDK7 average normalised counts” value (CDK7 mRNA) of the same compound?
Its value is 605.207.

And the “CDK7 normalised counts (replicates)” value (CDK7 mRNA)?
Its value is 585.94 and 619.3 and 610.38.

What about the “CDK8 average normalised counts” value (CDK8 mRNA) of the same compound?
Its value is 908.99.

And the “CDK8 normalised counts (replicates)” value (CDK8 mRNA)?
Its value is 898.63 and 942.48 and 885.86.

What about the “CDK9 average normalised counts” value (CDK9 mRNA) of the same compound?
Its value is 879.65.

What about the “CDK9 normalised counts (replicates)” value (CDK9 mRNA) of the same compound?
Its value is 853.18 and 899.91 and 885.86.

And the “CDK10 average normalised counts” value (CDK10 mRNA)?
Its value is 437.29.

What about the “CDK10 normalised counts (replicates)” value (CDK10 mRNA) of the same compound?
The value was 440.51 and 431.66 and 439.7.

What about the “CDK11A average normalised counts” value (CDK11A mRNA) of the same compound?
The value was 420.55.

And the “CDK11A normalised counts (replicates)” value (CDK11A mRNA)?
Its value is 435.96 and 389.96 and 435.73.

And the “CDK12 average normalised counts” value (CDK12 mRNA)?
The value was 928.887.

What about the “CDK12 normalised counts (replicates)” value (CDK12 mRNA) of the same compound?
Its value is 909.53 and 946.82 and 930.31.

And the “CDK13 average normalised counts” value (CDK13 mRNA)?
The value was 1530.42.

What about the “CDK13 normalised counts (replicates)” value (CDK13 mRNA) of the same compound?
The value was 1564.9 and 1505.42 and 1520.95.

What about the “CDK14 average normalised counts” value (CDK14 mRNA) of the same compound?
The value was 158.347.

And the “CDK14 normalised counts (replicates)” value (CDK14 mRNA)?
The value was 151.46 and 173.64 and 149.94.

And the “CDK15 average normalised counts” value (CDK15 mRNA)?
The value was 1.

And the “CDK15 normalised counts (replicates)” value (CDK15 mRNA)?
The value was 1.

And the “CDK16 average normalised counts” value (CDK16 mRNA)?
Its value is 3907.09.

What about the “CDK16 normalised counts (replicates)” value (CDK16 mRNA) of the same compound?
The value was 3890.94 and 3866.66 and 3963.68.

And the “CDK17 average normalised counts” value (CDK17 mRNA)?
The value was 1410.09.

What about the “CDK17 normalised counts (replicates)” value (CDK17 mRNA) of the same compound?
The value was 1395.83 and 1406.38 and 1428.07.

What about the “CDK18 average normalised counts” value (CDK18 mRNA) of the same compound?
The value was 99.86.
